How the values were obtained:
[1] = system: p62 oligomers in HeLa cells; experiment: p62 oligomerization assay (Western blot, 24 h treatment); type: cell-based; settings: fold change of p62 oligomer levels relative to DMSO control
Method: (§1) HeLa cells were seeded in 6-well plates (700,000 cells) and allowed to adhere overnight. Media was replaced one hour before administering either vehicle (DMSO) or test compounds. After 24 hours of treatment, the media was discarded, and cells were rinsed once with ice-cold 1×PBS before detached from plates with ice-cold RIPA Lysis and Extraction Buffer (Thermo Fisher Scientific) which was supplemented with protease and phosphatase inhibitors. The resulting cell suspensions were transferred to pre-chilled microcentrifuge tubes, incubated on ice for 20 min with intermittent mixing and then centrifuged at 12,000 rpm for 20 min at 4° C. The supernatants were then aspirated slowly and transferred into new tubes kept on ice. The protein concentration in the samples was determined using BCA kit (Thermo Fisher Scientific) as per manufacturer's instructions.
(§2) For the p62 oligomerization and LC3 lipidation assays, cell lysates were prepared using RIPA buffer supplemented with 2% SDS and benzonase (Sigma). The lysates were then combined with 4× Laemmli protein sample buffer (Bio-Rad), heated at 70° C. for 10 min and subjected to a brief centrifugation of 10-15 seconds.
(§3) For p62 oligomerization and LC3 lipidation assays, lysates containing 30 μg of protein and for BRD4 and FKBP12(F36V) degradation assays, lysates containing 20 μg of protein, were loaded slowly into the wells of 4-20% gradient Tris-glycine gels (Bio-Rad). The gels were run at 100V until completion and transferred onto PVDF membranes. Membranes were blocked using 5% milk in TBS-Tween (0.1%) buffer at room temperature for 1 hour. The membranes were incubated with primary antibody in 5% milk-TBST with shaking, overnight at 4° C. The primary antibodies used were: p62 (Novus Biologicals 2C11, H00008878-MO1), LC3A/B (Cell Signalling Technology D3U4C, 12741S), FKBP12 (Abcam ab24373), BRD4 (Cell Signalling Technology E2A7X, 13440S), GAPDH (Cell Signalling Technology D4C6R, 97166S), and β-Actin (Proteintech 66009-1-Ig). Following primary antibody incubation, membranes were washed thrice with TBST 10 min before and after incubation with secondary-HRP conjugated antibody in 5% milk-TBST for 1 hour at room temperature. The secondary antibodies used were: Anti-Mouse IgG HRP Conjugate (Promega W4021B) and Anti-Rabbit IgG HRP Conjugate (Promega W4011B). For the p62 oligomerization assay, the total protein levels were assessed using Ponceau staining (Thermo Fisher Scientific) of PVDF membrane as per recommendation by manufacturer's guidelines.
(§4) Imaging was acquired using SuperSignal™ West Pico PLUS Chemiluminescent Substrate (Thermo Fisher Scientific) with iBright Invitrogen FL100 imaging system. Band signal intensity, reflective of protein concentrations, were quantified using Invitrogen™ iBright™ Analysis and Image J software.
HeLa cells were treated with compounds for 24 hours to evaluate the effect of these compounds on p62 oligomerisation activity. The resulting changes in levels of p62 oligomers were assessed by Western blotting, as described in experimental procedures. The fold change of p62 oligomer levels induced by compound treatment relative to vehicle control (DMSO) was determined and summarized in Table 8. Specifically, FIGS. 2A-C show Western blot images and their corresponding quantification showing the levels of high molecular weight (100-200 kDa) p62 oligomers by 24 hours compound treatments at listed concentrations, relative to vehicle control (DMSO) in HeLa cells. Protein loading consistencies was assessed by Ponceau staining (not shown).

[2] = system: LC3 protein (LC3-II/LC3-I) in HeLa cells; experiment: LC3 lipidation assay (LC3-II/LC3-I, Western blot, 24 h treatment); type: cell-based; settings: fold change in LC3-II/LC3-I relative to DMSO control
Method: as §1, §2, §3, §4
HeLa cells were treated with compounds for 24 hours to evaluate the effect of these compounds on LC3-II/LC3-I levels, a measure of autophagy activation. The changes in levels of LC3-I, LC3-II and β-Actin (loading control) were assessed by Western blotting, as described in experimental procedures. The fold increase of LC3-II/LC3-I levels induced by compound treatment relative to vehicle control (DMSO) was determined and summarized in Table 9. Specifically, FIGS. 3A-C show Western blot images and their corresponding quantification showing the lipidation levels of LC3 protein (LC3-II/LC3-I) by 24 hours compound treatments at listed concentrations, relative to vehicle control (DMSO) in HeLa cells.

With `OCCNCc1ccc2cc(-c3ccccc3)oc2c1` [Compound 2, 2-(((2-phenylbenzofuran-6-yl)methyl)amino)ethan-1-ol] as the molecule, how does the p62 oligomerization [1] read?
Its p62 oligomerization is “++ (> 2-fold change relative to DMSO control)”.

And the LC3 lipidation [2]?
Its LC3 lipidation is “++ (> 2-fold change in LC3-II/LC3-I relative to DMSO control)”.

Which results are given for `OCCNCc1ccc2cc(Cc3ccc(Cl)cc3)oc2c1` [Compound 13, 2-(((2-(4-chlorobenzyl)benzofuran-6-yl)methyl)amino)ethan-1-ol]?
p62 oligomerization [1]: ++ (> 2-fold change relative to DMSO control); LC3 lipidation [2]: ++ (> 2-fold change in LC3-II/LC3-I relative to DMSO control)

Which results are given for `Cc1c(Cc2ccccc2)oc2cc(CNCCO)ccc12` [Compound 42, 2-(((2-benzyl-3-methylbenzofuran-6-yl)methyl)amino)ethan-1-ol]?
p62 oligomerization [1]: + (< 2-fold change relative to DMSO control); LC3 lipidation [2]: + (< 2-fold change in LC3-II/LC3-I relative to DMSO control)

For `OCCNCc1ccc2cc(CCc3ccc(F)cc3)oc2c1` [Compound 49, 2-(((2-(4-fluorophenethyl)benzofuran-6-yl)methyl)amino)ethan-1-ol], which p62 oligomerization [1] is on record?
Its p62 oligomerization is “++ (> 2-fold change relative to DMSO control)”.

And the LC3 lipidation [2]?
Its LC3 lipidation is “+ (< 2-fold change in LC3-II/LC3-I relative to DMSO control)”.

Which results are given for `OCCNCc1ccc2cc(Cc3ccccc3)oc2c1` [compound 1]?
p62 oligomerization [1]: + (< 2-fold change relative to DMSO control); LC3 lipidation [2]: + (< 2-fold change in LC3-II/LC3-I relative to DMSO control)

`OCCNCc1ccc2cc(Cc3ccc(F)cc3)oc2c1` [compound 12] was tested. Which p62 oligomerization [1] did it give?
The p62 oligomerization was “++ (> 2-fold change relative to DMSO control)”.

And the LC3 lipidation [2]?
Its LC3 lipidation is “+ (< 2-fold change in LC3-II/LC3-I relative to DMSO control)”.

From patent US20250282742A1, “BENZOFURAN DERIVATIVES FOR TARGETING AUTOPHAGY” (Automera PTE. LTD, priority 2024, published 2025)
